In PMC7006908 (PLoS ONE, 2020):
Where two headings read alike, the source gives them in different places.

Columns and labels:
[1] = Long term stability of working solutions in methanol at -20°C; type: physicochemical
[2] = LC-MS/MS quantification of Cmin in plasma samples from breast cancer patients (clinical study CRO-2018-83); type: in vivo, human; details: for concentration at 25 h / concentration at 1 week / concentration at 15 h: human, plasma, oral; for concentration at 25 h / concentration at 1 week: 125 mg/day; for concentration at 25 h: patient 2, sample 3, PALBO 125 mg/day; for concentration at 1 week: patient 3, sample 4, PALBO 125 mg/day; for concentration at 15 h: patient 7, sample 9, PALBO 125 mg/day
Protocol: Preparation of calibration curve and QCs samples was conducted through the following steps: 1) 5 μL of working solutions were added to 95 μL of blank human plasma (dilution 1:20) and vortexed for 10 s; 2) a 10 μL-aliquot of this mix was added with 80 μL of cold IS working solution (see “Standard solutions preparation” section), vortexed and then centrifuged for 15 min at 16200 g and 4°C; 3) 70 μL of the supernatant were transferred to a polypropylene tube for the following analysis. […] The preparation of patients’ samples was conducted as following: patient plasma was thawed at room temperature, vortexed for 10 s and centrifuged, for 10 min, at 3000 g and 4°C; 10 μL of plasma was then treated according to steps 2) and 3).
The HPLC system was a SIL-20AC XR auto-sampler and LC-20AD UFLC XR pumps (Shimadzu, Tokyo, Japan). The mobile phases (MP) consisted of ultrapure water with 0.1% HCOOH (phase A) and methanol/isopropanol (9:1, v/v) with 0.1% HCOOH (phase B). The chromatographic separation was obtained on the Luna Omega Polar C18 column ([…], 100 Å, 50 x 2.1 mm) coupled with a Security Guard Cartridge (Polar, C18, 4 x 2.0 mm), both provided by Phenomenex (Castel Maggiore (BO), Italy). The mass spectrometry system used for the detection was an API 4000 triple quadrupole (AB SCIEX, Massachusetts, USA) with a TurboIonSpray source operating in positive ion mode. To optimize source and compound dependent parameters, solutions of each analyte at the concentration of 100 ng/mL were used with a flow rate of 20 μL/min. Data were processed with Analyst 1.6.3 and the quantification of the peaks was done with MultiQuant 2.1 (software package AB SCIEX).
The exclusion criteria were to be non-collaborative and/or unreliable patients and refusal of informed consent. Patients were asked to periodically (every two months) collect plasma samples for the estimation of PALBO or RIBO and/or LETRO Cmin during their therapy treatment.
Plasma was obtained immediately by centrifugation of the blood samples at 3000 g for 10 min at 4°C. Then the obtained plasma was split into two independent aliquots and stored at -80°C in two different freezers.
At present, each of the 10 patients’ samples collected were quantified in 2 separate runs during 2 different working days, to further assess the reproducibility of the proposed method. In fact, as recently introduced in the last version of the FDA guideline, incurred samples re-analysis (ISR) is necessary to show the reliability of the reported analyte concentrations obtained with a bioanalytical method. ISR is conducted by repeating the analysis of a subset of patients’ samples in separate runs. The two analyses can be considered equivalent if the percentage difference [expressed as: (repeat-original)*100/mean] between the first and the second concentration measured is within ±20% for at least 67% of the samples [23, 24].

[3] = Stability of deproteinized QCs in autosampler at 4 °C; type: physicochemical; details: for Acc. %, T = 72 h in autosampler (4°C): % of nominal
Protocol: Stability tests were conducted using QCs prepared in triplicate at each concentration (L, M, H): bench-top stability was investigated after 4 h at room temperature; stability of the deproteinized QCs was evaluated in autosampler set at 4 °C re-analysing the samples 24, 48, and 72 h after the first injection; freeze/thaw stability was assessed by analysing three freshly prepared aliquots of each QCs concentration, and then again after one and two freeze/thaw cycles.

[4] = deproteinized QC high: nominal 200.00 PALBO / 8000.00 RIBO / 400.00 LETRO ng/mL
[5] = deproteinized QC low: nominal 0.50 PALBO / 20.00 RIBO / 1.00 LETRO ng/mL
[6] = deproteinized QC medium: nominal 20.00 PALBO / 800.00 RIBO / 40.00 LETRO ng/mL

CC(=O)c1c(C)c2cnc(Nc3ccc(N4CCNCC4)cn3)nc2n(C2CCCC2)c1=O [PALBO, Palbociclib]
Mean ± SD measured concentration, stored at -20ºC over 2 months (methanol) ([1]; QC high: nominal 200.00 PALBO / 8000.00 RIBO / 400.00 LETRO ng/mL): 219.18 ± 9.46 ng/mL
Acc. %, stored at -20ºC over 2 months (methanol) ([1]; QC high: nominal 200.00 PALBO / 8000.00 RIBO / 400.00 LETRO ng/mL, % of nominal): 109.6%
Mean ± SD measured concentration, stored at -20ºC over 2 months (methanol) ([1]; QC low: nominal 0.50 PALBO / 20.00 RIBO / 1.00 LETRO ng/mL): 0.52 ± 0.02 ng/mL
Mean ± SD measured concentration, stored at -20ºC over 2 months (methanol) ([1]; QC medium: nominal 20.00 PALBO / 800.00 RIBO / 40.00 LETRO ng/mL): 22.43 ± 0.63 ng/mL
concentration at 25 h ([2]; 25 h from last capsule intake, read-out: I quantif. plasma concentration (Cmin)): 77.5 ng/mL
concentration at 25 h ([2]; reanalysis in second run, read-out: II quantif. plasma concentration (Cmin)): 82.4 ng/mL
concentration at 1 week ([2]; last PALBO intake 1 week before sampling, read-out: I quantif. plasma concentration (residual)): 1.6 ng/mL
concentration at 1 week ([2]; last intake 1 week before sampling, reanalysis in second run, read-out: II quantif. plasma concentration (residual)): 1.5 ng/mL
concentration at 15 h ([2]; LETRO 2.5 mg/day, last pill intake 15 h before sampling, read-out: I quantif. plasma concentration (Cmin)): 97.9 ng/mL
concentration at 15 h ([2]; LETRO 2.5 mg/day, reanalysis in second run, read-out: II quantif. plasma concentration (Cmin)): 96.2 ng/mL
I quantif. plasma concentration (Cmin) ([2]; patient 1, sample 1, PALBO 125 mg/day): 53.0 ng/mL
II quantif. plasma concentration (Cmin) ([2]; patient 1, sample 1, PALBO 125 mg/day, reanalysis in second run): 55.9 ng/mL
I quantif. plasma concentration (Cmin) ([2]; patient 2, sample 2, PALBO 125 mg/day): 76.9 ng/mL
II quantif. plasma concentration (Cmin) ([2]; patient 2, sample 2, PALBO 125 mg/day, reanalysis in second run): 84.2 ng/mL
I quantif. plasma concentration (Cmin) ([2]; patient 4, sample 5, PALBO 100 mg/day): 70.7 ng/mL
II quantif. plasma concentration (Cmin) ([2]; patient 4, sample 5, PALBO 100 mg/day, reanalysis in second run): 74.3 ng/mL
I quantif. plasma concentration (Cmin) ([2]; patient 5, sample 6, PALBO 125 mg/day): 39.5 ng/mL
II quantif. plasma concentration (Cmin) ([2]; patient 5, sample 6, PALBO 125 mg/day, reanalysis in second run): 43.0 ng/mL
I quantif. plasma concentration (Cmin) ([2]; patient 5, sample 7, PALBO 125 mg/day): 41.5 ng/mL
II quantif. plasma concentration (Cmin) ([2]; patient 5, sample 7, PALBO 125 mg/day, reanalysis in second run): 46.1 ng/mL
I quantif. plasma concentration (Cmin) ([2]; patient 6, sample 8, PALBO 125 mg/day, LETRO 2.5 mg/day): 69.7 ng/mL
II quantif. plasma concentration (Cmin) ([2]; patient 6, sample 8, PALBO 125 mg/day, LETRO 2.5 mg/day, reanalysis in second run): 74.0 ng/mL
Mean ± SD measured concentration, T = 72 h in autosampler (4°C) [3, 4]: 215.60 ± 8.28 ng/mL
Acc. %, T = 72 h in autosampler (4°C) [3, 4]: 107.8%
Mean ± SD measured concentration, T = 72 h in autosampler (4°C) [3, 5]: 0.54 ± 0.02 ng/mL
Acc. %, T = 72 h in autosampler (4°C) [3, 5]: 108.2%
Mean ± SD measured concentration, T = 72 h in autosampler (4°C) [3, 6]: 21.10 ± 1.23 ng/mL
Acc. %, T = 72 h in autosampler (4°C) [3, 6]: 105.5%
